Measurements from article PMC11231141, “Ube3a unsilencer for the potential treatment of Angelman syndrome” (Nature Communications, 2024).
Where two headings read alike, the source gives them in different places.

Legend:
[1] = tested on: paternal UBE3A-YFP; experiment: paternal UBE3A-YFP unsilencing, high-content imaging in mouse primary neurons (Ube3a m+/pYFP); format: cell-based; details: for Emax: Neuron, highest concentration with at least 90% neurons alive, read-out: EMAX (% patUBE3A-YFP+)
Protocol: We aimed to identify novel unsilencers of paternal Ube3a by employing a previously developed high-content small molecule screen. This screen was performed in primary neurons derived from knock-in mice harboring a yellow fluorescent protein (YFP) fused to the paternal allele of Ube3a[25], allowing for fluorescence-based identification of the paternal allele-specific expression of UBE3A-YFP (detected by a GFP antibody enhancement) (Fig. 1a and Supplementary Table 1). We screened >2800 compounds from a Pfizer chemogenetic library, which contains small molecules selected to cover a broad spectrum of pharmacological space. We screened small molecules at 1 μM concentration and used 0.3 μM topotecan, a topoisomerase inhibitor that can downregulate the Ube3a-ATS and unsilence the paternal Ube3a, as a positive control (Fig. 1b)[10]. Small molecules that increase the UBE3A-YFP signal represent putative paternal Ube3a unsilencers.
Immunofluorescence for high-content imaging analysis was performed as previously described with slight modifications. Following drug treatment at DIV7, primary neurons were fixed at DIV10 with 4% paraformaldehyde in PBS at room temperature (RT) for 10 min. After three brief washes in PBS, neurons were permeabilized with PBS/1% Triton-X-100 at RT for 10 min, followed by blocking with PBS including 5% normal goat serum and 0.2% Triton-X-100 (NGST) at RT. […] All acquired images were analyzed by CellProfiler[48]. The mean GFP signal from each drug-treated well was normalized to the average mean GFP signal from DMSO-treated neurons. […] Fluorescent images were acquired using a Nikon Ti2 eclipse fluorescence microscope (Nikon Instruments Inc.) and analyzed using Nikon NIS-Elements software (Nikon Instruments Inc.). Antibody-enhanced UBE3A-YFP fluorescence intensities were determined from DAPI and NeuN double-positive neurons in drug-treated wells and normalized to neurons in DMSO-treated wells. The cytotoxicity of a compound was determined by calculating the percentage of neurons (DAPI and NeuN double-positive cells) alive in drug-treated wells compared to the DMSO-treated wells. For determining the effectiveness of unsilencing, the percent neurons expressing GFP signal in neurons (DAPI and NeuN double-positive cells) in drug-treated wells was thresholded such that the percent GFP positive neurons in DMSO-treated wells was set to ~5%. Concentrations where more than 10% of neurons were dead compared to DMSO-treated wells were manually removed and the last included data point was set as a maximum efficacy. Sigmoidal curve fitting for the dose-response analysis was performed using GraphPad Prism software version 8.0 (GraphPad Software).

[2] = tested on: Ube3a mRNA; experiment: quantitative RT-PCR of Ube3a mRNA in wild-type primary neurons; format: cell-based, mouse
Protocol: (§1) from the paternal allele in mouse wild-type primary neurons. Primar y cortical neurons derived from wild-type (WT) mice were treated either with 0.1% DMSO as a vehicle, 1 µM ( S)-P HA53 35 33 , or 0.3 µ M to po te can for 72 hours at DIV7. Following the treatment, the relative quantity of ( a) Ube3a […]
determined through western blotting, with the data averaged across three individual experiments, depicted in (c). All data were normalized to GAPDH/Gapdh expression, log- transformed, mean-centered, and autoscaled for statistical analysis (n = 4 experiments fo r R T-PCR, and n = 3 for western blot; me a n ± SE M , o n e -way ANOVA followed by Dunnett ’s post hoc test, ** p < 0.01, *** p < 0.001, **** p < 0.0001). µM – micromolar; DMSO – dimethyl sulfoxide; kDA – kilodalton; Norm. – […]
(1 picture or pasted object on this page, not shown here)

[3] = tested on: UBE3A protein; experiment: western blot of UBE3A protein in wild-type primary neurons; format: cell-based, mouse
Protocol: 2’ MOE gapmer antisense oligonucleotides (ASOs) designed to target mouse Cdk2 sequence […], Cdk5 sequence […], Top1 sequence […], and scrambled […] sequence as a negative control (Integrated DNA Technologies) were formulated in water and added to cultured cortical neurons grown on 6-well plates at DIV5 at a final concentration of 10 μM. Neurons were further cultured and treated at DIV7 with vehicle (0.1% DMSO) or the indicated compounds for 72 h. For western blot analysis, neurons were washed once with PBS and then lysed using RIPA buffer (50 mM Tris-HCl pH 8.0, 150 mM NaCl, 1% NP−40, 0.5% Na-deoxycholate, 0.5% SDS) and protease inhibitor cocktail (P8340, MilliporeSigma) on ice. […]
as §1
determined through western blotting, with the data averaged across three individual experiments, depicted in (c). […]

[4] = molecular target: T1, TOP1 (Homo sapiens, UniProt P11387); experiment: TOP1-mediated DNA relaxation assay; format: biochemical; details: 3 μM topotecan; increasing concentrations of (S)- and (R)-PHA533533; vs DMSO
T1 construct: purchased TopoGEN
T1 sequence (P11387 1-765): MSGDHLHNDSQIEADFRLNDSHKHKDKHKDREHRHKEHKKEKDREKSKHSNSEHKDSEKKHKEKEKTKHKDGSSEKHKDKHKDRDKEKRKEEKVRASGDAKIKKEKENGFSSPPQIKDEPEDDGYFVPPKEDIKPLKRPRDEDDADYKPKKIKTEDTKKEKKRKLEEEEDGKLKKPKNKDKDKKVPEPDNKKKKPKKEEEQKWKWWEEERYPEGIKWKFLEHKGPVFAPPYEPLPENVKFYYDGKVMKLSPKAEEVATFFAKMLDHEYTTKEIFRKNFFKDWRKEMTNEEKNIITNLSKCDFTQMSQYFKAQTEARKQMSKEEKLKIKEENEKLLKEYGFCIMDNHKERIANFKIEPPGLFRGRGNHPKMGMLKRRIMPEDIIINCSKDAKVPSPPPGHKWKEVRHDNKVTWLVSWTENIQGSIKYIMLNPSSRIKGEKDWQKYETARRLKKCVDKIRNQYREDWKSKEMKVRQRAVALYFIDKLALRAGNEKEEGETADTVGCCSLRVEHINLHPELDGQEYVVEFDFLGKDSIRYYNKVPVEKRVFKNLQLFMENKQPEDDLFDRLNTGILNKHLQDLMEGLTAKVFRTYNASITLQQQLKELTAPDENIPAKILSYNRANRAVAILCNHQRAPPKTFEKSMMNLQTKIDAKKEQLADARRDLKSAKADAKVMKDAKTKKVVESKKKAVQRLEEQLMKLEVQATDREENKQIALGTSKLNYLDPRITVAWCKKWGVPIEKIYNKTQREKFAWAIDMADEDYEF
Description: (§2) […]. […] […]. […] […]. […] […].
The Pfizer chemogenetic library and PHA533533 derivatives were provided by the Compound Transfer Program (CTP) at Pfizer. Topotecan hydrochloride salt was purchased from Cayman Chemicals (Item No. 14129). […] […]. The Human Topoisomerase I Assay Kit was purchased from TopoGEN and performed according to the manufacturer’s protocols.

[5] = tested on: Snord115, Dlg2, Nrxn3, Malat1; experiment: quantitative RT-PCR of long genes in cultured mouse neurons; format: cell-based; details: 1 µM (S)-PHA533533 or 0.3 µM topotecan, 72 h, vs DMSO
Description: as §2

[6] = tested on: Pantr1, Airn; experiment: quantitative RT-PCR of antisense lncRNA transcripts in cultured mouse neurons; format: cell-based; details: 1 µM (S)-PHA533533 or 0.3 µM topotecan, 72 h, vs DMSO
Description: as §2

[7] = 1 µM (S)-PHA533533 or 0.3 µM topotecan, 72 h at DIV7

Q: `C[C@H](C(=O)Nc1cc(C2CC2)[nH]n1)c1ccc(N2CCCC2=O)cc1` [(S)-PHA533533] was tested. Which “paternal UBE3A-YFP immunofluorescent signal” value [1] did it give?
A: high levels of paternal UBE3A-YFP

Q: And the Emax ([1]; Mus musculus, 72 h, mean ± SEM)?
A: 80 ± 8.41%

Q: What about the “Ube3a mRNA levels in WT neurons” value [2] of the same molecule?
A: significantly increased

Q: What about the “UBE3A protein levels in WT neurons” value [3] of the same molecule?
A: significantly increased

Q: What about the “inhibition of TOP1 catalytic activity to relax supercoiled DNA” value [4] of the same molecule?
A: had no effect on the TOP1 activity

Q: What about the “expression of long genes (Snord115, Dlg2, Nrxn3, Malat1)” value [5] of the same molecule?
A: significantly reduced the expression of only Snord115

Q: And the “expression levels of Pantr1 or Airn” value [6]?
A: neither topotecan nor (S)-PHA533533 treatments changed the expression levels

Q: How did the “paternal UBE3A-YFP immunofluorescent signal” value ([1]; 0.3 μM topotecan, 1 μM (R)- or (S)-PHA533533, 72 h) turn out when `CC[C@@]1(O)C(=O)OCc2c1cc1n(c2=O)Cc2cc3c(CN(C)C)c(O)ccc3nc2-1` [Topotecan, reference compound] was run?
A: high levels of paternal UBE3A-YFP

Q: What about the Emax ([1]; Mus musculus, 72 h, mean ± SEM) of the same molecule?
A: 66.31 ± 0.45%

Q: And the EC50 ([1]; Mus musculus, Primary neuron, 72 h, mean ± SEM, n = 3)?
A: 0.08 ± 0.02 µM

Q: And the “Ube3a mRNA levels in WT neurons” value [2, 7]?
A: significantly increased

Q: And the “UBE3A protein levels in WT neurons” value [3, 7]?
A: significantly increased

Q: What about the “inhibition of TOP1 catalytic activity to relax supercoiled DNA” value [4] of the same molecule?
A: clearly inhibited TOP1 catalytic activity

Q: What about the “expression of long genes (Snord115, Dlg2, Nrxn3, Malat1)” value [5] of the same molecule?
A: significantly impaired the expression of all the measured long genes

Q: And the “expression levels of Pantr1 or Airn” value [6]?
A: neither topotecan nor (S)-PHA533533 treatments changed the expression levels
